Patent publication US7687497B2, “C10-substituted camptothecin analogs” (priority 2007, dated 2010)
Where two headings read alike, the source gives them in different places.

Legend:
[1] = cited from earlier work
[2] = system: advanced gastrointestinal cancer; conditions: cited from earlier work
[3] = system: advanced malignant melanoma; conditions: fifteen patients, 90-360 mg/m^2 repeated every 2 weeks; cited from earlier work
[4] = cited from earlier work; remark: listed apart in the source
[5] = clinical studies in Japan alone; cited from earlier work
A2780/DX5 cells = experiment: Sulforhodamine B (SRB) cytotoxicity assay in A2780/DX5 cells; format: cell-based; conditions: for IC50 Ratio: A2780/DX5 versus A2780/WT; for IC50: Homo sapiens, A2780, read-out: A2780/DX5 (nM)
Experimental: (§1) Each of the testing conditions used in this study in both A2780/WT (wild-type) and A2780/DX5 cells were repeated in five to fifteen experiments that were performed on separate days. Each experiment consisted of one microtiter plate with at least eight individual assays of a given drug treatment condition on the plate. The sulforhodamine B (SRB) assay was used to assess cytotoxicity and absorbance at 570 nm (A570) in order to calculate the percentage of cell control (or percent cell survival) for the various treatment conditions in the plate wells.
Roswell Park Memorial Institute (RPMI 1640) medium, fetal bovine serum (FBS), and L-glutamine were purchased from Gibco BRL. Drugs were dissolved in sterile dimethylsulfoxide (DMSO), from American Type Culture Collection (ATCC) for stock solutions (2.5 to 5.0 mM). Subsequent dilutions were made using cell culture medium (prior to adding the drug to cells). SRB was purchased from Sigma and dissolved in 1.0% acetic acid. Trichloroacetic acid was purchased from VWR International.
Cells were manipulated in a Class IIA/B3 Biological Safety Cabinet (Forma Scientific) and maintained at 37° C. in a humidified atmosphere containing 5% CO2 in a water-jacketed cell culture incubator (Forma Scientific). Cells were counted using a Coulter-Z1 counter (Beckman-Coulter). Following drug treatment, plates were washed using a Biomek 2000 station (Beckman) and, following exposure to SRB dye, plates were washed using an automated plate washer (Model EL404, Bio-Tek Instruments). Percentage of control was correlated to A570 values and determined using a Model EL800 plate reader (Bio-Tek Instruments).
Population doubling times for the two cell lines used in this study encompassed a total of five cell doublings corresponding to approximately 5 days for A2780/WT and A2780/DX5 cells. A2780/WT and A2780/DX5 cells were cultured in RPMI 1640 medium supplemented with 10% fetal bovine serum and 1 mM of L-glutamine. Both cell lines were maintained as monolayered cultures in T-25 or T-75 flasks and then seeded to microtiter plate wells for experiments described herein. Prior to SRB assays, cell viability was monitored by evaluation of microtiter plate wells. […]
The sulforhodamine B (SRB) cytotoxicity assay (see, Skehan P, et al., New colorimetric cytotoxicity assay for anticancer-drug screening. J. Natl. Cancer Inst. 82:1107-1112 (1990)) was used to determine the cytotoxic effects of BNP1350, SN-38, topotecan, 9-NH2-CPT, and 9-NO2-CPT on cell growth in vitro. […] Plates were agitated (gently) for 5 minutes and the absorbance values of the SRB dye-protein adduct at a 570 nm wavelength (A570) were determined using an automated microtiter plate reader equipped with an A570 filter (Model EL800, BioTek Instruments).

[6] = system: A2780/WT (wild-type) cells; experiment: Sulforhodamine B (SRB) cytotoxicity assay in A2780/WT cells; format: cell-based; conditions: Homo sapiens, A2780, read-out: A2780/WT (nM)
Experimental: as §1
Roswell Park Memorial Institute (RPMI 1640) medium, fetal bovine serum (FBS), and L-glutamine were purchased from Gibco BRL. […]
Cells were manipulated in a Class IIA/B3 Biological Safety Cabinet (Forma Scientific) and maintained at 37° C. in a humidified atmosphere containing 5% CO2 in a water-jacketed cell culture incubator (Forma Scientific). Cells were counted using a Coulter-Z1 counter (Beckman-Coulter). […] Percentage of control was correlated to A570 values and determined using a Model EL800 plate reader (Bio-Tek Instruments).
Population doubling times for the two cell lines used in this study encompassed a total of five cell doublings corresponding to approximately 5 days for A2780/WT and A2780/DX5 cells. […] Prior to SRB assays, cell viability was monitored by evaluation of microtiter plate wells. […]

human cancer cell lines = experiment: In vitro studies on a panel of over 20 human cancer cell lines; format: cell-based
[7] = 5-day course (27 patients total), 4 wks
[8] = 5-day course (27 patients total), 8 wks
[9] = 5-day course (27 patients total), 12 wks
[10] = single-dose method (34 patients total), 3 wks
[11] = single-dose method (34 patients total), 6 wks
[12] = single-dose method (34 patients total), 9 wks
[13] = single-dose method (34 patients total), 12 wks
[14] = 5-day course 15 mg/m^2 × 5, 9 patients treated
[15] = 5-day course 17 mg/m^2 × 5, 5 patients treated
[16] = 5-day course 20 mg/m^2 × 5, 10 patients treated
[17] = single dose 110 mg/m^2, 2 patients treated
[18] = single dose 120 mg/m^2, 7 patients treated
[19] = single dose 180 mg/m^2, 9 patients treated

CC[C@@]1(O)C(=O)OCc2c1cc1n(c2=O)Cc2cc3ccccc3nc2-1 [CPT sodium]
bladder toxicity dose limiting ([1]; doses of 20 to 30 mg/m^2): three | bladder toxicity, additional patients ([1]; doses of 30 and 44 mg/m^2): two | Objective results: Improved [2, 7]: 1 patients | Objective results: Stable [2, 7]: 12 patients | Objective results: Worse [2, 7]: 14 patients | Objective results: Stable [2, 8]: 7 patients | Objective results: Worse [2, 8]: 20 patients | Objective results: Stable [2, 9]: 6 patients | Objective results: Worse [2, 9]: 21 patients | patients with evidence of partial objective improvement ([2]; after 2 months (8 or 9 weeks), of 61 patients): two | patients who showed improvement ([2]; at 3 months, of 61 patients): none | Objective results: Improved [2, 10]: 4 patients | Objective results: Stable [2, 10]: 17 patients | Objective results: Worse [2, 10]: 13 patients | Objective results: Improved [2, 11]: 2 patients | Objective results: Stable [2, 11]: 11 patients | Objective results: Worse [2, 11]: 21 patients | Objective results: Improved [2, 12]: 2 patients | Objective results: Stable [2, 12]: 8 patients | Objective results: Worse [2, 12]: 24 patients | Objective results: Stable [2, 13]: 6 patients | Objective results: Worse [2, 13]: 28 patients | less pronounced transient tumor regression [3]: three | No. of patients with cystitis ([4]; 5-day course 11 mg/m^2 × 5, 2 patients treated): 1 patients | No. of patients with cystitis [4, 14]: 4 patients | No. of patients with diarrhea [4, 14]: 1 patients | No. of patients with cystitis [4, 15]: 2 patients | No. of patients with diarrhea [4, 15]: 4 patients | No. of patients with cystitis [4, 16]: 6 patients | No. of patients with diarrhea [4, 16]: 4 patients | No. of patients with diarrhea ([4]; 5-day course 22 mg/m^2 × 5, 1 patient treated): 1 patients | Cystitis, 5-Day Course (% of 27 Patients) ([4]; 5-day course): 48 (P < 0.05) % | Number of patients with cystitis ([4]; single dose 100 mg/m^2, 6 patients treated): 2 patients | Number of patients with cystitis [4, 17]: 1 patients | Number of patients with diarrhea [4, 17]: 1 patients | Number of patients with cystitis [4, 18]: 2 patients | Number of patients with diarrhea [4, 18]: 4 patients | Number of patients with cystitis [4, 19]: 3 patients | Number of patients with diarrhea [4, 19]: 2 patients | Cystitis, Single Dose (% of 34 Patients) ([4]; single dose method): 24%

CCc1c2c(nc3ccc(OC(=O)N4CCC(N5CCCCC5)CC4)cc13)-c1cc3c(c(=O)n1C2)COC(=O)[C@]3(O)CC [CPT-11, 7-ethyl-10-[4-(1-piperidino)-1-piperidino]carbonyloxy camptothecin]
patient deaths directly attributable to drug toxicity [5]: approximately 100 patient deaths

CCOC(=O)COc1ccc2nc3c(c(CC[Si](C)(C)C)c2c1)Cn1c-3cc2c(c1=O)COC(=O)[C@]2(O)CC [Compound 9, 7-(2′-Trimethylsilanyl)ethyl-10-(ethoxycarbonylmethoxy) camptothecin]
IC50 Ratio (A2780/DX5 cells): 1.7 | IC50 (A2780/DX5 cells): 123 nM | IC50 [6]: 73.9 nM

CC[C@@]1(O)C(=O)OCc2c1cc1n(c2=O)Cc2c-1nc1ccc(OC(=O)N3CCOCC3)cc1c2CC[Si](C)(C)C [Compound 12, 7-(2′-Trimethylsilanyl)ethyl-10-(4-morpholinecarbonyloxy) camptothecin]
IC50 Ratio (A2780/DX5 cells): 2.1 | IC50 (A2780/DX5 cells): 135 nM | IC50 [6]: 65.6 nM

CC[C@@]1(O)C(=O)OCc2c1cc1n(c2=O)Cc2c-1nc1ccccc1c2CC[Si](C)(C)C [Karenitecin (BNP1350), (4S)-4-ethyl-4-hydroxy-11-[2-(trimethylsilyl)ethyl]-1H-pyrano[3′:4′:6,7]indolizino[1,2-b]quinoline-3,14(4H,12H)-dione]
antitumor potency compared with Topotecan or SN-38 (human cancer cell lines): significantly more potent
